In patent US12668763B2, “Co-culturing device, motor neuron culturing device, multi-well plate, fabrication method of in vitro evaluation model of neuromuscular disease, and screening method of therapeutic agent against neuromuscular disease” (priority 2019, dated 2026):

Tested on: motor neuron / skeletal muscle tissue (neuromuscular junction) of the evaluation model
Assay: Contraction of skeletal muscle tissue caused by stimulation of motor neurons in the evaluation model (device a), moving-image analysis
Type: cell-based, human

| SMILES | contraction of a skeletal muscle tissue after addition of the drug |
| --- | --- |
| NC1=N[C@H](O)[C@H]2[C@H]3O[C@]4(O)O[C@@H]([C@@H](O)[C@@]2(N1)[C@@H]4O)[C@]3(O)CO [tetrodotoxin] | stops contraction of a skeletal muscle tissue |
| N[C@@H](CCC(=O)O)C(=O)O [glutamic acid, Glutamic acid] | causes contraction of a skeletal muscle tissue |
